By IC50 is commonly meant the point on the concentration scale where inhibition reaches its midpoint.

The source of these data is article PMC9964544, “Evidence of Insulin-Sensitizing and Mimetic Activity of the Sesquiterpene Quinone Avarone, a Protein Tyrosine Phosphatase 1B and Aldose Reductase Dual Targeting Agent from the Marine Sponge Dysidea avara” (Pharmaceutics, 2023).

The test system of experiment [1] is C2C12 cells. Kind of experiment: Glucose uptake assay (2-NBDG, flow cytometry) in C2C12 cells. Type of experiment: cell-based. The conditions noted are these: 2 h 10 mM cytochalasin B. The procedure:
To evaluate the impact of avarone (2) on the insulin signaling pathway, C2C12 cells were plated on P35 dishes and grown until 70% confluence. Then, cells were washed with phosphate-buffered saline (PBS) and incubated for 24 h in the presence of a starvation medium (DMEM high glucose containing 2 mM glutamine, 100 U/mL of penicillin, and 100 μg/mL of streptomycin). After this time, cells were stimulated for 30 min with 10 nM insulin (Humulin R, Ely Lilly, Italy) with avarone (2) or the insulin-avarone combination. After this time, cells were washed with cold PBS and lysed using 100 µL of 1X Laemmli sample buffer solution (50 mM Tris-HCl pH 6.8, 2% SDS, 10% glycerol, 1% β-mercaptoethanol, 12.5 mM EDTA, 0.02% bromophenol blue). Cell proteins were withdrawn, transferred in an Eppendorf tube and boiled for 5 min. All samples were stored at −20 °C before the analysis. Analysis of samples was carried out using SDS-PAGE; after electrophoresis, proteins were transferred on a PVDF membrane by Western blot. Phosphorylation levels of the insulin receptor β chain and of the kinase Akt were evaluated using specific antibodies: IR β subunit, clone CT-3 (MABS65) was from Santa Cruz Biotechnology (Santa Cruz, CA, USA); pIR β subunit, Y1162/1163 (sc-25103-R) was from Merck-Millipore (Burlington, MA, USA). Akt (9272S) and p-Akt (9271S) antibodies were from Cell Signaling Technology (Danvers, MA, USA). Finally, β-actin and clone C-4 (sc-47778) were from Merck-Millipore (Burlington, MA, USA). Anti-rabbit and anti-mouse secondary antibodies were from Santa Cruz Biotechnology (Santa Cruz, CA, USA). Detection was performed using Clarity western ECL substrates (BioRad Laboratories, Inc. 1000 Alfred Nobel DriveHercules, CA, USA). Quantitation of the images obtained was carried out using iBright Analysis Software (Thermo Fisher Scientific 168 Third Avenue Waltham, MA, USA, 02451). Glucose uptake was evaluated as previously described. […] Intrinsic and 2-NBDG-derived cell fluorescences were determined using a flow cytometer (FACSCanto II, BD Biosciences, San Jose, CA, USA). […] Quantitative analysis was carried out using FlowJo software (FlowJo^TM v10. BD FlowJo™ Software for Windows Version 10. Ashland, OR: Becton, Dickinson and Company; 2021).
Figure 8 Glucose uptake assay. […] After, cells were washed with PBS, detached using trypsin, collected by centrifugation, and analyzed using a flow cytometer (FACSCanto II, BD Biosciences). […] For each experiment, 10,000 events were analyzed. […] (B) Quantitation of fluorescence levels. […]
Figure 9 Impact of cytochalasin B on avarone-induced glucose uptake. […] After, cells were washed and incubated for 3 h with 40 µM 2-NBDG and then analyzed using a flow cytometer (FACSCanto II, BD Biosciences). For each experiment, 10,000 events were analyzed. […]

The target in experiment [2] is T1, human recombinant AKR1B1 (Homo sapiens, UniProt P15121).
T1 construct: made in house
The experiment in a line: AKR1B1 inhibition assay with L-idose as substrate, NADPH oxidation (IC50). It counts as biochemical. The conditions noted are these: 10 mU AKR1B1, 1.6 mM L-idose, 37 °C; IC50 ± SD. Here is the method: (§1) The purification of human recombinant AKR1B1 was performed as previously described. […] The purified enzyme, stored at −80 °C in 10 mM sodium phosphate buffer pH 7.0 containing 2 mM DTT and 30% (w/v) glycerol, was extensively dialyzed against 10 mM sodium phosphate buffer pH 7.0 before use. […] The fractions containing PTP1B were collected, concentrated, and injected into a Superdex G75 column equilibrated with Tris-HCl buffer pH 8.0 containing 150 mM NaCl and 1 mM mercaptoethanol. The fractions containing PTP1B were collected and concentrated; the purity of preparation was evaluated using SDS-PAGE. The PTP1B preparation was split into fractions of 0.5 mL volume; each fraction was stored at −80 °C.
(§2) The standard assay mixture (final volume 0.7 mL) was contained in 0.25 M sodium phosphate buffer pH 6.8, 0.18 mM NADPH, 0.4 M ammonium sulfate, 0.5 mM EDTA, and 4.7 mM GAL. One unit of enzyme activity is the amount of enzyme that catalyzes the conversion of 1 µmol of substrate/min in the above assay conditions. The same assay conditions were adopted in the inhibition studies using L-idose as the substrate at the indicated concentrations. PTP1B activity was determined using p-nitrophenylphosphate (pNPP) as the synthetic substrate. The pNPP was dissolved in 0.075 M ββ-dimethylglutarate buffer, pH 7.0, containing 1 mM dithiothreitol. Each assay was carried out at 37 °C in 1 mL of assay buffer. The reactions were started by diluting an aliquot of PTP1B preparation in the assay buffer; after 30 min, the reactions were stopped by adding 2 mL of 0.2 M KOH solution. The amount of p-nitrophenol released was determined spectrophotometrically, reading the absorbance of solutions at 400 nm (ε400nm = 18 mM^−^1cm^−^1).

For experiment [3], the target named is T2, Human PTP1B (Homo sapiens, UniProt P18031).
T2 sequence (P18031 1-302): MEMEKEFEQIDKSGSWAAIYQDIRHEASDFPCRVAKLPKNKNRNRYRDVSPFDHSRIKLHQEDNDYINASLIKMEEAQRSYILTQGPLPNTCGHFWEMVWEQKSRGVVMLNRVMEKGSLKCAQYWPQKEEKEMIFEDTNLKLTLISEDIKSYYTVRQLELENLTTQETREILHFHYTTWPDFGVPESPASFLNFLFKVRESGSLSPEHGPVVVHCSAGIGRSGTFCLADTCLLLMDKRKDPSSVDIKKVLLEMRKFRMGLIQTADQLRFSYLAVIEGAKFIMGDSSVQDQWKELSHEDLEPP
Kind of experiment: PTP1B inhibition assay with pNPP as substrate (IC50). Type of experiment: biochemical. Set-up: polyHis (N); made in house. The conditions noted are these: 2.5 mM pNPP, 37 °C; IC50 ± SD. The procedure:
as §1, §2

In experiment [4] the test system is 3T3-L1 cells. Set-up: method as in PMID 19262557, PMID 19091557. The conditions noted are these: ref [24],[27]; cited from earlier work.
The target of experiment [5] is T2, Human PTP1B. Set-up: polyHis (N); made in house. The conditions noted are these: cited from earlier work; for IC50: IC50 ± SD.
Experiment [6] deals with C2C12 cells. Kind of experiment: Seahorse XFe96 Mito Stress Test in C2C12 cells. It counts as cell-based. The conditions noted are these: affecting maximal respiration and ATP production-linked oxygen consumption. Here is the method:
C2C12 cells (3 × 10^4 cells/well) were placed in XFe96 cell culture plates. After 24 h of incubation at 37 °C, cell growth medium was substituted with an XF base medium supplemented with 2 mM glutamine, 1 mM sodium pyruvate, and 10 mM glucose, pH 7.4. The plate was then transferred in a non-CO2 incubator for 1 h at 37 °C to pre-equilibrate the cells before analysis. An XF Mito Stress Test was performed to assay the cells’ ability to exploit mitochondrial oxidative metabolism, according to the manufacturer’s instructions. The oxygen consumption rate (OCR) was evaluated after the injection of a sequence of compounds that interfere with the electron transport chain: oligomycin (1 μM), carbonyl cyanide-4 (trifluoromethoxy) phenylhydrazone (FCCP) (1 μM), and Rotenone/Antimycin A (0.5 μM). All data were normalized on the protein content of each well.
Figure 10 Results of Mito Stress Test assay. (A) C2C12 cells were subjected to Seahorse XFe96-Mito Stress Test analysis to evaluate oxygen consumption rate (OCR) in real time. OCR values were normalized on protein content. (B) Basal respiration, ATP-linked OCR, spare capacity, maximal respiration, and proton leak were calculated using data obtained from OCR plot after the administration of the adenosine triphosphate ATP synthase inhibitor oligomycin, the proton uncoupler carbonylcyanide p-trifluoromethoxyphenylhydrazone (FCCP), and the combination of the respiratory complex I inhibitor rotenone and the respiratory complex III inhibitor antimycin A. Each point reported in the OCR plot represents the medium value ± SEM obtained from independent replicates (n = 3 or 4). One-way ANOVA with Dunnett’s correction was used to assess differences in experimental features by using Prism 8 software (GraphPad). Statistical significance is annotated as follows: * p ≤ 0.01, ** p ≤ 0.001, *** p ≤ 0.0001, (t-test); ns, not significant; FC, fold change.

Experiment [7] addresses T1, human recombinant AKR1B1. Set-up: method as in Demir et al. [17]. The conditions noted are these: ref Demir et al. [17]; cited from earlier work.

Where two headings read alike, the source gives them in different places.

With `C=C1[C@@H](C)[C@H]2[C@H](Cc3ccccc3)NC(=O)[C@]23OC(=O)/C=C/[C@H](O)CCC[C@@H](C)C/C=C/[C@H]3[C@@H]1O` [Cytochalasin B, cytochalasin B, reference compound], the “effect of preincubation on insulin-stimulated glucose uptake” value in experiment [1] (then 10 nM insulin 30 min) is on record as “strongly affects insulin-stimulated glucose uptake”. Besides, the “effect of preincubation on avarone-mediated glucose uptake” value in experiment [1] (then 25 µM avarone 30 min) is on record as “abolishes the avarone-mediated glucose uptake”.

Consider `CC1=CCC[C@H]2[C@](C)(Cc3cc(O)ccc3O)[C@@H](C)CC[C@]12C` [avarol (1), avarol], for which the IC50 in experiment [2] came to 0.52 ± 0.19 µM; in experiment [3], 42.2 ± 18 µM.

For the molecule dysidine [dysidine (5)], the “glucose uptake in 3T3-L1 cells” value in experiment [4] is given as “increase glucose uptake”. Also, in experiment [5] (ref Li et al. [27]), the IC50 is 6.7 ± 0.1 µM. In addition, in experiment [5] (ref [24],[27]), the “selectivity over other PTPs (TC-PTP and CD45)” value was “moderate selectivity”; the “type of PTP1B inhibition” value is “reversible slow-binding PTP1B inhibitor”.

On to `CNC1=CC(=O)C=C(C[C@]2(C)[C@@H](C)CC[C@]3(C)C(C)=CCC[C@@H]23)C1=O` [3-methylaminoavarone (3), 3-(methylamino)avarone], for which the figures for the IC50 in experiment [2] and in experiment [3] were 73 ± 15 µM and 15.2 ± 2.1 µM, respectively.

For the molecule `CNC1=CC(=O)C(C[C@]2(C)[C@@H](C)CC[C@]3(C)C(C)=CCC[C@@H]23)=CC1=O` [4-methylaminoavarone (4), 4-(methylamino)avarone], the IC50 in experiment [2] turned out to be 62 ± 8 µM; in experiment [3], 21.6 ± 1 µM.

In the case of `N#C/C(=C\c1cn(-c2ccccc2)c2ccccc12)C(=O)O` [UK5099, reference compound], in experiment [6], the “mitochondrial respiration (OCR)” value is given as “significant reduction in mitochondrial respiration”.

For `O=C1C=CC(=O)C=C1` [p-benzoquinone], the half-maximal inhibitory concentration (IC50) in experiment [5] (ref Zhang et al. [24]) was 38.9 ± 5.2 µM; in experiment [7], 1930 nM.

With “21-dehydroxybolinaquinone [21-dehydroxybolinaquinone (6)]”, the IC50 in experiment [5] (ref Li et al. [27]) was 39.5 µM.
